The subject of one test is soybeans. As to the kind of experiment: Soybeans in a vegetation experiment in sandy loam (Example 19). The format is in vivo, soybean (Gieso variety). To be noted: for Growth height: 4 weeks; for response vs control in vivo at 3000 g/ha / response vs control in vivo at 6000 g/ha: control 100. The protocol:
Soybean plants of the Gieso variety were grown in a neutral sandy loam. Fertilization took place at the time of sowing, with 0.5 g N as ammonium nitrate and 1.0 g P2 O5 as secondary potassium phosphate. […]
After 4 weeks, the treated plants were much shorter than the control, and looked more compact as a result of the different angle of the leaves. The prior art compound used for comparison purposes was 2,3,5-triiodobenzoic acid (T; U.S. Pat. No. 2,978,838).

The next test has as its system barley. Nature of the test: Growth height of barley, greenhouse (Example 9). The following applies: for Plant height relative: control 100. The format is in vivo, barley (Villa). From the text: (§1) In the greenhouse, the four cereals wheat ("Opal" variety), rye ("Petkuser"), barley ("Villa") and oats ("Flamingskrone") were sown in plastic dishes 11.5 cm in diameter in a sandy loam adequately supplied with nutrients. The active ingredients were applied at various rates to the soil and to the leaves. When applied to the soil, the active ingredient were sprayed onto the surface of the soil on the day of sowing; in the case of leaf treatment, the leaves were sprayed in the usual manner at a growth height of the plants of 10 cm. During the 18 day growth period, the treated plants grew much more slowly than the untreated control, a fact later confirmed by measurements of the stem length. Measurements were taken of 100 plants from each series.
(§2) The prior art agent used for comparison purposes was N-2-chloroethyl-N,N,N-trimethylammonium chloride (CCC; German Printed Application DAS No. 1,294,734).

For another test, the system named is oats. As to the kind of experiment: Growth height of oats, greenhouse (Example 10). The format is in vivo, oats (Flamingskrone). To be noted: for Plant height relative: control 100.
Excerpt: as §1, §2

The test system of the next test is grass or lawns. Nature of the test: Action on grass or lawns (Example 13). The format is in vivo. To be noted: for First cutting, dry substance / First cutting, growth height: 19 days after treatment; for First cutting, dry substance relative / First cutting, growth height relative: control 100; for Observations (color): control normal green. From the text: Lawn seed of the standard mixture Agrostis tenius (10%), Cynosurus cristatus (10%), Festuca rubra (15%), Lolium perenne (35%) and Poa praetensis (30%) was sown in a loam in large pots. The soil was fertilized with 1.5 g N as ammonium nitrate and 1 g P2 O5 as secondary potassium phosphate. After the grass had been cut twice, it was sprayed in conventional manner at a height of 4 cm with the active ingredients at various application rates. 19 days after treatment the growth height and dry substance content were determined. The treated grass was much shorter than the control, and produced a correspondingly lower amount of dry substance.
The prior art compound used for comparison purposes was maleic hydrazide (M; German 815,192).

The mark [1] stands for this setting: Glycine max, 672 h, read-out: Growth height relative.
[2] abbreviates: Glycine max, 672 h, 3.0 kg/ha, read-out: Growth height relative.
Where [3] appears, read: Glycine max, 672 h, 6.0 kg/ha, read-out: Growth height relative.

For `O=C(O)c1cc(I)cc(I)c1I` [T, 2,3,5-triiodobenzoic acid, reference compound], the values for the Growth height in the test on soybeans (0.125 kg/ha), in the test with soybeans (0.375 kg/ha) and in the test on soybeans (0.750 kg/ha) were 23.5 cm, 25.0 cm and 23.0 cm, respectively. For the same molecule, in the test with soybeans (setting [1]), the response vs control in vivo at 125 g/ha amounted to 102%. In addition, the response vs control in vivo at 375 g/ha in the test with soybeans (setting [1]) was 109%. Further, in the test with soybeans (setting [1]), the response vs control in vivo at 750 g/ha came out at 100%.
As to `Brc1ccc(N2N=NC3C4CC(C5N=NC45)C32)cc1` (stereo not drawn) [drawing 353], the Plant height stood at 30.5 cm in the test on barley (soil, 0.5 kg/ha); 29.0 cm with barley (soil, 1.0 kg/ha); 24.5 cm with barley (soil, 2.0 kg/ha); 19.0 cm in the test on barley (soil, 6.0 kg/ha). The Plant height relative with barley (soil, 0.5 kg/ha) came to 96.8; with barley (soil, 1.0 kg/ha), 92.1; with barley (soil, 2.0 kg/ha), 77.8; in the test on barley (soil, 6.0 kg/ha) it was 60.3.
For the molecule `Clc1ccc(N2N=NC3C4CC(C5N=NC45)C32)cc1` (stereo not drawn) [drawing 354], the Plant height with barley (leaf, 0.125 kg/ha) is recorded as 24.0 cm; with barley (leaf, 0.5 kg/ha), 23.0 cm; with barley (leaf, 1.0 kg/ha), 21.5 cm; in the test on barley (leaf, 2.0 kg/ha) it was 20.5 cm; in the test with barley (leaf, 4.0 kg/ha), 18.5 cm. Further, the Plant height relative in the test with barley (leaf, 0.125 kg/ha) came out at 80.0; in the test on barley (leaf, 0.5 kg/ha), 76.7; in the test on barley (leaf, 1.0 kg/ha), 71.7; in the test on barley (leaf, 2.0 kg/ha), 68.3; in the test on barley (leaf, 4.0 kg/ha), 61.7.
Turning to `Brc1ccc(N2N=NC3C4CC(C5N=NC45)C32)cc1` (stereo not drawn) [drawing 355], the Plant height in the test with barley (leaf, 0.125 kg/ha) is 25.5 cm; with barley (leaf, 0.5 kg/ha), 23.5 cm; with barley (leaf, 1.0 kg/ha) it was 22.0 cm; with barley (leaf, 2.0 kg/ha), 20.5 cm; in the test on barley (leaf, 4.0 kg/ha), 20.0 cm. Moreover, the Plant height relative was 85.0 in the test on barley (leaf, 0.125 kg/ha); 78.3 in the test with barley (leaf, 0.5 kg/ha); 73.3 with barley (leaf, 1.0 kg/ha); 68.3 in the test with barley (leaf, 2.0 kg/ha); 66.7 in the test on barley (leaf, 4.0 kg/ha).
Consider `Clc1ccc(N2N=NC3C4CC(C5N=NC45)C32)cc1` (stereo not drawn) [drawing 356], for which the Plant height with oats (soil, 0.5 kg/ha) is given as 25.0 cm; in the test with oats (soil, 1.0 kg/ha), 24.0 cm; with oats (soil, 2.0 kg/ha), 21.0 cm; in the test with oats (soil, 6.0 kg/ha) it was 15.0 cm. Moreover, the Plant height relative worked out at 89.3 in the test with oats (soil, 0.5 kg/ha); 85.7 in the test with oats (soil, 1.0 kg/ha); 75.0 with oats (soil, 2.0 kg/ha); 53.6 in the test on oats (soil, 6.0 kg/ha).
On to `Brc1ccc(N2N=NC3C4CC(C5N=NC45)C32)cc1` (stereo not drawn) [drawing 357], for which the Plant height is reported as 28.0 cm in the test on oats (soil, 0.5 kg/ha); 26.5 cm in the test on oats (soil, 1.0 kg/ha); 24.5 cm in the test with oats (soil, 2.0 kg/ha); 15.5 cm in the test with oats (soil, 6.0 kg/ha). Also, the Plant height relative in the test on oats (soil, 0.5 kg/ha) is 100; in the test with oats (soil, 1.0 kg/ha) it was 94.6; in the test on oats (soil, 2.0 kg/ha) it was 87.5; in the test with oats (soil, 6.0 kg/ha), 55.4.
Consider `Clc1ccc(N2N=NC3C4CC(C5N=NC45)C32)cc1` (stereo not drawn) [drawing 358], for which the Plant height turned out to be 23.5 cm in the test on oats (leaf, 0.125 kg/ha); 22.5 cm in the test on oats (leaf, 0.5 kg/ha); 21.0 cm in the test on oats (leaf, 1.0 kg/ha); 19.0 cm in the test on oats (leaf, 2.0 kg/ha); 17.0 cm with oats (leaf, 4.0 kg/ha). In addition, the Plant height relative in the test on oats (leaf, 0.125 kg/ha) was 83.9; in the test on oats (leaf, 0.5 kg/ha) it was 80.4; in the test on oats (leaf, 1.0 kg/ha) it was 75.0; in the test on oats (leaf, 2.0 kg/ha), 67.9; with oats (leaf, 4.0 kg/ha), 60.7.
For the molecule `Brc1ccc(N2N=NC3C4CC(C5N=NC45)C32)cc1` (stereo not drawn) [drawing 359], the Plant height is reported as 25.5 cm in the test with oats (leaf, 0.125 kg/ha); 25.0 cm with oats (leaf, 0.5 kg/ha); 22.5 cm with oats (leaf, 1.0 kg/ha); 22.5 cm with oats (leaf, 2.0 kg/ha); 22.0 cm in the test with oats (leaf, 4.0 kg/ha). Besides, the Plant height relative in the test on oats (leaf, 0.125 kg/ha) turned out to be 91.1; in the test on oats (leaf, 0.5 kg/ha), 89.3; with oats (leaf, 1.0 kg/ha), 80.4; in the test on oats (leaf, 2.0 kg/ha), 80.4; in the test with oats (leaf, 4.0 kg/ha), 78.6.
As to `Clc1ccc(N2N=NC3C4CC(C5N=NC45)C32)cc1` (stereo not drawn) [drawing 378], the “First cutting, dry substance” value in the test with grass or lawns (0.25 kg/ha) was 10.7 g; in the test on grass or lawns (0.5 kg/ha), 8.6 g; in the test on grass or lawns (1.0 kg/ha) it was 7.0 g; in the test with grass or lawns (2.0 kg/ha), 4.8 g; in the test on grass or lawns (4.0 kg/ha) it was 3.1 g. The “First cutting, growth height” value with grass or lawns (0.25 kg/ha) turned out to be 26.0 cm; with grass or lawns (0.5 kg/ha), 24.0 cm; in the test on grass or lawns (1.0 kg/ha) it was 19.0 cm; in the test on grass or lawns (2.0 kg/ha), 16.0 cm; in the test with grass or lawns (4.0 kg/ha), 10.5 cm. The “First cutting, dry substance relative” value with grass or lawns (0.25 kg/ha) turned out to be 85.6; in the test on grass or lawns (0.5 kg/ha) it was 68.8; with grass or lawns (1.0 kg/ha), 56.0; in the test on grass or lawns (2.0 kg/ha), 38.4; with grass or lawns (4.0 kg/ha), 24.8. In addition, the “First cutting, growth height relative” value with grass or lawns (0.25 kg/ha) came to 101.9; in the test on grass or lawns (0.5 kg/ha) it was 94.1; in the test with grass or lawns (1.0 kg/ha), 74.5; with grass or lawns (2.0 kg/ha) it was 62.7; in the test with grass or lawns (4.0 kg/ha), 41.1. In addition, the “Observations (color)” value is “normal green” in the test with grass or lawns (0.25 kg/ha); “normal green” in the test on grass or lawns (0.5 kg/ha); “normal green” with grass or lawns (1.0 kg/ha); “dark green” with grass or lawns (2.0 kg/ha); “dark green” in the test on grass or lawns (4.0 kg/ha).
Take `Brc1ccc(N2N=NC3C4CC(C5N=NC45)C32)cc1` (stereo not drawn) [drawing 379]: the “First cutting, dry substance” value came out at 12.8 g in the test on grass or lawns (0.25 kg/ha); 11.4 g with grass or lawns (0.5 kg/ha); 8.4 g with grass or lawns (1.0 kg/ha); 6.3 g with grass or lawns (2.0 kg/ha); 4.1 g in the test with grass or lawns (4.0 kg/ha). In addition, the “First cutting, growth height” value is recorded as 25.0 cm in the test on grass or lawns (0.25 kg/ha); 24.0 cm in the test with grass or lawns (0.5 kg/ha); 21.5 cm in the test with grass or lawns (1.0 kg/ha); 18.0 cm in the test on grass or lawns (2.0 kg/ha); 12.5 cm in the test with grass or lawns (4.0 kg/ha). The “First cutting, dry substance relative” value with grass or lawns (0.25 kg/ha) was 102.4; with grass or lawns (0.5 kg/ha), 91.2; in the test with grass or lawns (1.0 kg/ha), 67.2; with grass or lawns (2.0 kg/ha), 50.4; in the test on grass or lawns (4.0 kg/ha) it was 32.8. Also, the “First cutting, growth height relative” value in the test with grass or lawns (0.25 kg/ha) was found to be 98.0; in the test on grass or lawns (0.5 kg/ha), 94.1; in the test on grass or lawns (1.0 kg/ha) it was 84.2; in the test on grass or lawns (2.0 kg/ha) it was 70.5; with grass or lawns (4.0 kg/ha), 49.0. The “Observations (color)” value in the test on grass or lawns (0.25 kg/ha) is “normal green”. Moreover, the “First cutting, chlorophyll content” value in the test on grass or lawns (2.0 kg/ha, control 1.33) worked out at 1.40 g Ca + b/100 g TS.
Regarding `Clc1ccc(N2N=NC3C4CC(C5N=NC45)C32)cc1` (stereo not drawn) [drawing 393], the Growth height was found to be 15.0 cm in the test on soybeans (3.0 kg/ha, soil) and 14.0 cm in the test with soybeans (6.0 kg/ha, soil). Besides, the response vs control in vivo at 3000 g/ha in the test with soybeans (setting [2]) amounted to 65.2%. The response vs control in vivo at 6000 g/ha in the test on soybeans (setting [3]) is 60.9%.
With `Clc1cccc(N2N=NC3C4CC(C5N=NC45)C32)c1` (stereo not drawn) [drawing 394], the Growth height in the test on soybeans (3.0 kg/ha, soil) is reported as 17.5 cm; in the test with soybeans (6.0 kg/ha, soil), 14.5 cm. Also, in the test on soybeans (setting [2]), the response vs control in vivo at 3000 g/ha turned out to be 76.1%. Besides, in the test on soybeans (setting [3]), the response vs control in vivo at 6000 g/ha amounted to 63%.
`Clc1ccc(N2N=NC3C4CC(C5NNC45)C32)cc1` (stereo not drawn) [drawing 395]: the Growth height in the test on soybeans (3.0 kg/ha, soil) stood at 13.5 cm; in the test with soybeans (6.0 kg/ha, soil), 12.5 cm. Moreover, the response vs control in vivo at 3000 g/ha with soybeans (setting [2]) came to 58.7%. Besides, in the test with soybeans (setting [3]), the response vs control in vivo at 6000 g/ha was 54.4%.

Source of the values: patent US4257941A, “Polycyclic nitrogen-containing compounds” (BASF Aktiengesellschaft, priority 1976, dated 1981).
